Target: T1, FPRL-1 (Homo sapiens, UniProt P25090)
T1 construct: expressed in transfected cells
T1 sequence (P25090 1-351): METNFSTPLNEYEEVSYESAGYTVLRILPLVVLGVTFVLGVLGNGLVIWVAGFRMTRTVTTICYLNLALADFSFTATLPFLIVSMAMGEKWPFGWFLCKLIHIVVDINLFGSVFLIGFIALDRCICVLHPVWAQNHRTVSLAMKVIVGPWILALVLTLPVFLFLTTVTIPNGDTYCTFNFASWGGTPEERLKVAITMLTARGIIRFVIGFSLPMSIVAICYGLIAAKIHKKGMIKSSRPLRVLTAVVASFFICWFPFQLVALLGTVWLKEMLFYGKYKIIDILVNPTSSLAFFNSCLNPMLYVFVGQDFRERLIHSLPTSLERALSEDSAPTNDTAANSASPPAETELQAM
Test: compound-induced calcium activity on FLIPR Tetra in CHO-Gα16 cells stably expressing FPRL1
Format: cell-based
Conditions: for FPRL-1 Ga16-CHO (Rel. eff.): relative efficacy; for EC50: tested 0.61 to 10,000 nM, read-out: FPRL-1 Ga16-CHO EC50
Outline: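 CHO-Gα16 cells stably expressing FPRL1, plated at 18,000 cells/well the day before, were read for compound-induced calcium response on FLIPR Tetra.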

`CC(C)C[C@H](NC(=O)Nc1ccc([S+](C)[O-])cc1)C(=O)NCC(=O)OC(C)(C)C` (stereo partly drawn) [Compound 75, tert-butyl {[(2S)-4-methyl-2-({[4-(methylsulfinyl)phenyl]carbamoyl}amino)pentanoyl]amino}acetate] was tested, and the “FPRL-1 Ga16-CHO (Rel. eff.)” value was “(0.97)” and the EC50 was 668 nM.

With `CC(C)C[C@H](NC(=O)Nc1ccc(S(C)(=O)=O)cc1)C(=O)NCC(=O)OC(C)(C)C` [Compound 76, tert-butyl {[(2S)-4-methyl-2-({[4-(methylsulfonyl)phenyl]carbamoyl}amino)pentanoyl]amino}acetate] the “FPRL-1 Ga16-CHO (Rel. eff.)” value was “(0.90)” and the EC50 was 1080 nM.

With `CC(C)C[C@H](NC(=O)Nc1ccc([S+](C)[O-])cc1)C(=O)NCC(=O)O` (stereo partly drawn) [Compound 77, {[(2S)-4-methyl-2-({[4-(methylsulfinyl)phenyl]carbamoyl}amino)pentanoyl]amino}acetic acid] the “FPRL-1 Ga16-CHO (Rel. eff.)” value was “(1.21)” and the EC50 was 358 nM.

With `CC(C)C[C@H](NC(=O)Nc1ccc(S(C)(=O)=O)cc1)C(=O)NCC(=O)O` [Compound 78, {[(2S)-4-methyl-2-({[4-(methylsulfonyl)phenyl]carbamoyl}amino)pentanoyl]amino}acetic acid] the “FPRL-1 Ga16-CHO (Rel. eff.)” value was “(1.12)” and the EC50 was 459 nM.

For `CC(C)C[C@H](NC(=O)Nc1ccc(C(F)(F)F)cc1)C(=O)NC(C)(C)C(=O)OC(C)(C)C` [Compound 79, tert-butyl 2-methyl-2-{[(2S)-4-methyl-2-({[4-(trifluoromethyl)phenyl]carbamoyl}amino)pentanoyl]amino}propanoate], the “FPRL-1 Ga16-CHO (Rel. eff.)” value was “(1.07)” and the EC50 was 1020 nM.

`CSCC[C@H](NC(=O)Nc1ccc(Br)cc1)C(=O)NCC(=O)OC(C)(C)C` [Compound 80, tert-butyl {[(2S)-2-{[(4-bromophenyl)carbamoyl]amino}-4-(methylsulfanyl)butanoyl]amino}acetate] was tested, and the “FPRL-1 Ga16-CHO (Rel. eff.)” value was “(0.98)” and the EC50 was 127 nM.

With `CC(C)(C)OC(=O)CNC(=O)[C@H](CCS(C)(=O)=O)NC(=O)Nc1ccc(Br)cc1` [Compound 81, tert-butyl {[(2S)-2-{[(4-bromophenyl)carbamoyl]amino}-4-(methylsulfonyl)butanoyl]amino}acetate] the “FPRL-1 Ga16-CHO (Rel. eff.)” value was “(0.97)” and the EC50 was 1240 nM.

With `CSCC[C@H](NC(=O)Nc1ccc(Br)cc1)C(=O)NCC(=O)O` [Compound 82, {[(2S)-2-{[(4-bromophenyl)carbamoyl]amino}-4-(methylsulfanyl)butanoyl]amino}acetic acid] the “FPRL-1 Ga16-CHO (Rel. eff.)” value was “(1.03)” and the EC50 was 7 nM.

`CS(=O)(=O)CC[C@H](NC(=O)Nc1ccc(Br)cc1)C(=O)NCC(=O)O` [Compound 83, {[(2S)-2-{[(4-bromophenyl)carbamoyl]amino}-4-(methylsulfonyl)butanoyl]amino}acetic acid] was tested, and the “FPRL-1 Ga16-CHO (Rel. eff.)” value was “(1.01)” and the EC50 was 247 nM.

For `CC(C)(C)OC(=O)CNC(=O)C(Cc1c[nH]cn1)NC(=O)Nc1ccc(Br)cc1` (centres unmarked) [Compound 84, tert-butyl {[2-{[(4-bromophenyl)carbamoyl]amino}-3-(1H-imidazol-4-yl)propanoyl]amino}acetate], the “FPRL-1 Ga16-CHO (Rel. eff.)” value was “(0.95)” and the EC50 was 263 nM.

`O=C(O)CNC(=O)C(Cc1c[nH]cn1)NC(=O)Nc1ccc(Br)cc1` (centres unmarked) [Compound 85, {[2-{[(4-bromophenyl)carbamoyl]amino}-3-(1H-imidazol-4-yl)propanoyl]amino}acetic acid] was tested, and the “FPRL-1 Ga16-CHO (Rel. eff.)” value was “(0.95)” and the EC50 was 10 nM.

For `CC(C)C[C@@H](NC(=O)Nc1ccc(Br)cc1)C(=O)NC(C)(C)C(=O)OC(C)(C)C` [Compound 86, tert-butyl 2-{[(2R)-2-{[(4-bromophenyl)carbamoyl]amino}-4-methylpentanoyl]amino}-2-methylpropanoate], the “FPRL-1 Ga16-CHO (Rel. eff.)” value was “(0.74)” and the EC50 was 2730 nM.

With `CC(C)C[C@@H](NC(=O)Nc1ccc(Br)cc1)C(=O)NC(C)(C)C(=O)O` [Compound 87, 2-{[(2R)-2-{[(4-bromophenyl)carbamoyl]amino}-4-methylpentanoyl]amino}-2-methylpropanoic acid] the “FPRL-1 Ga16-CHO (Rel. eff.)” value was “(0.74)” and the EC50 was 490 nM.

For `CC(C)(C)OC(=O)CNC(=O)C(CC(N)=O)NC(=O)Nc1ccc(Br)cc1` (centres unmarked) [Compound 88, tert-butyl {[4-amino-2-{[(4-bromophenyl)carbamoyl]amino}-4-oxobutanoyl]amino}acetate], the “FPRL-1 Ga16-CHO (Rel. eff.)” value was “(0.90)” and the EC50 was 2310 nM.

For `NC(=O)CC(NC(=O)Nc1ccc(Br)cc1)C(=O)NCC(=O)O` (centres unmarked) [[(4-amino-2-{[(4-bromophenyl)carbamoyl]amino}-4-oxobutanoyl)amino]acetic acid], the “FPRL-1 Ga16-CHO (Rel. eff.)” value was “(0.81)” and the EC50 was 2940 nM.

For `CCC[C@H](NC(=O)Nc1ccc(Br)cc1F)C(=O)NCC(=O)OC(C)(C)C` [tert-butyl {[(2S)-2-{[(4-bromo-2-fluorophenyl)carbamoyl]amino}pentanoyl]amino}acetate], the “FPRL-1 Ga16-CHO (Rel. eff.)” value was “(0.95)” and the EC50 was 83 nM.

In the case of `O=C(O)CNC(=O)C(Cc1c[nH]c2ccccc12)NC(=O)Nc1ccc(Br)cc1` (centres unmarked) [{[2-{[(4-bromophenyl)carbamoyl]amino}-3-(1H-indol-3-yl)propanoyl]amino}acetic acid], the “FPRL-1 Ga16-CHO (Rel. eff.)” value is reported as “(0.97)” and the EC50 is reported as 0.73 nM.

With `CC(C)C[C@@H](NC(=O)Nc1ccc(Br)cc1F)C(=O)NCC(=O)O` [{[(2R)-2-{[(4-bromo-2-fluorophenyl)carbamoyl]amino}-4-methylpentanoyl]amino}acetic acid] the “FPRL-1 Ga16-CHO (Rel. eff.)” value was “(0.87)” and the EC50 was 1490 nM.

`CCC[C@H](NC(=O)Nc1ccc(Br)cc1F)C(=O)NCC(=O)O` [{[(2S)-2-{[(4-bromo-2-fluorophenyl)carbamoyl]amino}pentanoyl]amino}acetic acid] was tested, and the “FPRL-1 Ga16-CHO (Rel. eff.)” value was “(0.92)” and the EC50 was 4.8 nM.

— US10172832B2, “Amide derivatives of N-urea substituted amino acids as formyl peptide receptor like-1 (FPRL-1) receptor modulators” (Allergan, Inc., priority 2011, dated 2019)
